Measured values taken from patent US20070117770A1, “Human ribosomal DNA (rDNA) and ribosomal RNA (rRNA) nucleic acids and uses thereof” (Cylene Pharmaceuticals, Inc., priority 2005, published 2007).

Columns and labels:
Assay in all cases: Protein kinase inhibition assay
Bmx(h) = Bmx(h) (Homo sapiens, UniProt P51813); format: biochemical; conditions: read-out: percent residual activity of Bmx(h)
Method: (§1) Certain compounds were tested for activity in protein kinase inhibition assays. All substrates were dissolved and diluted to working stocks in de-ionized water, apart from histone H1 (10× working stock in 20 mM MOPS pH 7.0), PDKtide (10× working stock in 50 mM Tris pH 7.0) ATF2 (which is typically stored at a 20× working stock in 50 mM Tris pH 7.5, 150 mM NaCl, 0.1 mM EGTA, 0.03% Brij-35, 50% glycerol, 1 mM benzamidine, 0.2 mM PMSF and 0.1% R-mercaptoethanol), KKLNRTLSFAEPG (SEQ ID NO:203) and RRRLSFAEPG (SEQ ID NO:204) (50 mM HEPES pH 7.4) and GGEEEEYFELVKKKK (SEQ ID NO:205) (20 mM MOPS pH 7.0). All kinases were pre-diluted to a 10× working concentration prior to addition into the assay. The composition of the dilution buffer for each kinase is detailed below.
(§2) In a final reaction volume of 25 μl, Bmx (h) (5-10 mU) is incubated with 8 mM MOPS pH 7.0, 0.2 mM EDTA, 0.1 mg/ml poly(Glu, Tyr) 4:1, 10 mM MgAcetate and [gamma-33P-ATP] (specific activity approx. 500 cpm/pmol, concentration as required). The reaction is initiated by the addition of the MgATP mix. After incubation for 40 minutes at room temperature, the reaction is stopped by the addition of 5 μl of a 3% phosphoric acid solution. 10 μl of the reaction is then spotted onto a Filtermat A and washed three times for 5 minutes in 75 mM phosphoric acid and once in methanol prior to drying and scintillation counting.

CK1(y) = format: biochemical, yeast; conditions: 2.5 μM
Method: as §1
as §2, with “25 μl, CK1 (y) (5-10 mU)” for “25 μl, Bmx (h) (5-10 mU)”, “mM EDTA, 200 μM KRRRALS(p)VASLPGL (SEQ ID NO:214), 10 mM” for “mM EDTA, 0.1 mg/ml poly(Glu, Tyr) 4:1, 10 mM”, “of 5 μL of a” for “of 5 μl of a”, “onto a P30 filtermat and washed” for “onto a Filtermat A and washed”

IKKα(h) = IKKα(h) (Homo sapiens, UniProt O15111); format: biochemical; conditions: read-out: percent residual activity of IKKα(h)
Chain of IKKα(h) (O15111 whole entry): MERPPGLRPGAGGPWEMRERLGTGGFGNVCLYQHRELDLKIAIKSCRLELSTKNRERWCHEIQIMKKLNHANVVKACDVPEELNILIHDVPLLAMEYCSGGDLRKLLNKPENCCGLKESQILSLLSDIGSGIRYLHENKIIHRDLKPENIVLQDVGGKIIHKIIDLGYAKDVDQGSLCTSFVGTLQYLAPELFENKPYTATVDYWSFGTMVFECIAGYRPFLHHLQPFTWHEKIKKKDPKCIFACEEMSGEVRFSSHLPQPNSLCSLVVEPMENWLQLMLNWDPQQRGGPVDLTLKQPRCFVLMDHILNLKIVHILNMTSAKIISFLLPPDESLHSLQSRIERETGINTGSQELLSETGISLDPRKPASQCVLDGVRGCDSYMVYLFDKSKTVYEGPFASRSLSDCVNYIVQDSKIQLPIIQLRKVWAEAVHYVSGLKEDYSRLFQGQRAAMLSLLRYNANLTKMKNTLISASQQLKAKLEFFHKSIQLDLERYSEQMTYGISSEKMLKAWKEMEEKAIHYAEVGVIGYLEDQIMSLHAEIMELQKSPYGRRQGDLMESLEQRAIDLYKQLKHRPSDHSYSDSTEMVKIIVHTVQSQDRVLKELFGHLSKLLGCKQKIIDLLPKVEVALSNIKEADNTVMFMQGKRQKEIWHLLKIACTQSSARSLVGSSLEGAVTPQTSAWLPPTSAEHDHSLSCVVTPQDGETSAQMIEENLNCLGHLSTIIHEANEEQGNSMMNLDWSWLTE
Method: as §1
as §2, with “IKKa” for “Bmx”, “200 μM peptide,” for “0.1 mg/ml poly(Glu, Tyr) 4:1,”, “P30 filtermat” for “Filtermat A”

PKBβ(h) = PKBβ(h) (Homo sapiens, UniProt P31751); format: biochemical; conditions: read-out: percent residual activity of PKBβ(h)
Chain of PKBβ(h) (P31751 whole entry): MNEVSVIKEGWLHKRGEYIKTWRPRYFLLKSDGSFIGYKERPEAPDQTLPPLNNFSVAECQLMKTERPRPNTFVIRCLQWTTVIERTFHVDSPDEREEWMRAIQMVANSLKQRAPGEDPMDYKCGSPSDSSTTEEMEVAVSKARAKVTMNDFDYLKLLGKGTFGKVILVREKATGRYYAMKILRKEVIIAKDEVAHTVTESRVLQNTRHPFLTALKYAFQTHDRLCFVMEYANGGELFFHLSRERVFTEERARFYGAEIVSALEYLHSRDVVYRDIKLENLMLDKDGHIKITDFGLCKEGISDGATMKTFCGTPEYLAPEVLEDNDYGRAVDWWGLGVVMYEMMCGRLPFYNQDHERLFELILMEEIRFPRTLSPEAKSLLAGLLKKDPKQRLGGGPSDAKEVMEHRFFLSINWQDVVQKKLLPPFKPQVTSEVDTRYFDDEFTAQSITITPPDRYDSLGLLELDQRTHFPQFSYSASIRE
Method: as §1
as §2, with “PKBβ” for “Bmx”, “30 μM GRPRTSSFAEGKK (SEQ ID NO:232),” for “0.1 mg/ml poly(Glu, Tyr) 4:1,”, “P30 filtermat” for “Filtermat A”

PRK2(h) = PRK2(h) (Homo sapiens, UniProt Q16513); format: biochemical; conditions: read-out: percent residual activity of PRK2(h)
Chain of PRK2(h) (Q16513 whole entry): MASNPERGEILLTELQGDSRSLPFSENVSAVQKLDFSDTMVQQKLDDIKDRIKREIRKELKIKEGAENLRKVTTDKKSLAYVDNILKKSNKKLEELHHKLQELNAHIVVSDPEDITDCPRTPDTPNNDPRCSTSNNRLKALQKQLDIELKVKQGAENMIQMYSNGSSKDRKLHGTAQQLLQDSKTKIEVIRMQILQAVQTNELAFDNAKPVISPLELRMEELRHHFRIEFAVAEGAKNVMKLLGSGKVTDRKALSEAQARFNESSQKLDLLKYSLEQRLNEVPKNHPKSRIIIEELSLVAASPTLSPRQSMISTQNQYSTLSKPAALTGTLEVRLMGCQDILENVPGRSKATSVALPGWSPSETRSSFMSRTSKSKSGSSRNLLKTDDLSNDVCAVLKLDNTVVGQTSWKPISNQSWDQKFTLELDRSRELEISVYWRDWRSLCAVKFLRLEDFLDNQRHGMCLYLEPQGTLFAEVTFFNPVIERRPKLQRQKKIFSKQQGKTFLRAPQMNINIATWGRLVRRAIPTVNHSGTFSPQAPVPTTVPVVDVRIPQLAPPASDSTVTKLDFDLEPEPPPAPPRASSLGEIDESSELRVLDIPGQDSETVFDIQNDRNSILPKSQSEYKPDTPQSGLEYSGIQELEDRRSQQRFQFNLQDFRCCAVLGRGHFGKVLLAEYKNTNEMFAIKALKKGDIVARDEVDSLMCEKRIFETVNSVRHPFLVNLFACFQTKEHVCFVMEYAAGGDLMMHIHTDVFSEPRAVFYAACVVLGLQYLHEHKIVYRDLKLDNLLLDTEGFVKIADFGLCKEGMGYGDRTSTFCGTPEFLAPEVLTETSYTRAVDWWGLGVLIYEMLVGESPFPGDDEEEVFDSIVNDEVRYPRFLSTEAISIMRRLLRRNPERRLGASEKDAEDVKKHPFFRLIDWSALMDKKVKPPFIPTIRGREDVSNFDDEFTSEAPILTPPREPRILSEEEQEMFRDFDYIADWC
Method: as §1
In a final reaction volume of 25 μl, PRK2 (h) (5-10 mU) is incubated with 50 mM Tris pH 7.5, 0.1 mM EGTA, 0.1% R-mercaptoethanol, 30 μM AKRRRLSSLRA (SEQ ID NO:226), 10 mM MgAcetate and [gamma-33P-ATP] (specific activity approx. 500 cpm/pmol, concentration as required). The reaction is initiated by the addition of the MgATP mix. After incubation for 40 minutes at room temperature, the reaction is stopped by the addition of 5 μl of a 3% phosphoric acid solution. […]

Snk(h) = Snk(h) (Homo sapiens, UniProt Q9NYY3); format: biochemical; conditions: read-out: percent residual activity of Snk(h)
Chain of Snk(h) (Q9NYY3 whole entry): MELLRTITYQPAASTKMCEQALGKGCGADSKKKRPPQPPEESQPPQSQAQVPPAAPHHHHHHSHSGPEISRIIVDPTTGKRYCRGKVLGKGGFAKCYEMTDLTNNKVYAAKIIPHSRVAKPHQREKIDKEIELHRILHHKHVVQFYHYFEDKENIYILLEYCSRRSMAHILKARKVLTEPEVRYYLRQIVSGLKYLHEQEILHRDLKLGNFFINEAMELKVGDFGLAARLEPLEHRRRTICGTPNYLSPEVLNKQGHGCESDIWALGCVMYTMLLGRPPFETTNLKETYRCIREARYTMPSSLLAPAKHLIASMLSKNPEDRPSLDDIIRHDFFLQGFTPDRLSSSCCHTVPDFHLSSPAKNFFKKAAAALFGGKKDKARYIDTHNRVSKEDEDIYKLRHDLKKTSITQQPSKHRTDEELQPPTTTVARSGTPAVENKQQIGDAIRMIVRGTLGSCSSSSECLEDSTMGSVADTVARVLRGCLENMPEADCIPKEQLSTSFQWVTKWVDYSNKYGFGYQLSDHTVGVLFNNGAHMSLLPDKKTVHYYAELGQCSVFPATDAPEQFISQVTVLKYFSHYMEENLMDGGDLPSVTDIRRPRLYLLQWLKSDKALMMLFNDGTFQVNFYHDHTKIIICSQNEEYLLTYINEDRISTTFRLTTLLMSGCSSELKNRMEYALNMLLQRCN
Method: as §1
as §2, with “Snk” for “Bmx”, “2” for “0.1”, “casein,” for “poly(Glu, Tyr) 4:1,”, “P30 filtermat” for “Filtermat A”

ZIPK(h) = ZIPK(h) (Homo sapiens, UniProt O43293); format: biochemical; conditions: read-out: percent residual activity of ZIPK(h)
Chain of ZIPK(h) (O43293 whole entry): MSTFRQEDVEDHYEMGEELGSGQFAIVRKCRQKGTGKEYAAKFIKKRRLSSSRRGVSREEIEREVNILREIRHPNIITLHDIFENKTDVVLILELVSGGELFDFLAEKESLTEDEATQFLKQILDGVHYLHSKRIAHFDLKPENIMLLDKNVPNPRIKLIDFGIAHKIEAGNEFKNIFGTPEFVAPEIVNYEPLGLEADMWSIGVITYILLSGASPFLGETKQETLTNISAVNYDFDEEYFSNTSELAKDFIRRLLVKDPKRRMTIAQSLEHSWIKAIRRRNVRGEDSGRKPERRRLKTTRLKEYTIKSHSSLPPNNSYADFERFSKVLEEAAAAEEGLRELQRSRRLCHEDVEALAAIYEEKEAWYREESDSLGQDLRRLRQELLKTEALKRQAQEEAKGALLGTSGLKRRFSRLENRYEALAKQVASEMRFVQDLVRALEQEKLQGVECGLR
Method: as §1
as §2, with “ZIPK” for “Bmx”, “250 μM KKLNRTLSFAEPG (SEQ ID NO:203),” for “0.1 mg/ml poly(Glu, Tyr) 4:1,”, “P30 filtermat” for “Filtermat A”

Chain of Bmx(h) (P51813 whole entry): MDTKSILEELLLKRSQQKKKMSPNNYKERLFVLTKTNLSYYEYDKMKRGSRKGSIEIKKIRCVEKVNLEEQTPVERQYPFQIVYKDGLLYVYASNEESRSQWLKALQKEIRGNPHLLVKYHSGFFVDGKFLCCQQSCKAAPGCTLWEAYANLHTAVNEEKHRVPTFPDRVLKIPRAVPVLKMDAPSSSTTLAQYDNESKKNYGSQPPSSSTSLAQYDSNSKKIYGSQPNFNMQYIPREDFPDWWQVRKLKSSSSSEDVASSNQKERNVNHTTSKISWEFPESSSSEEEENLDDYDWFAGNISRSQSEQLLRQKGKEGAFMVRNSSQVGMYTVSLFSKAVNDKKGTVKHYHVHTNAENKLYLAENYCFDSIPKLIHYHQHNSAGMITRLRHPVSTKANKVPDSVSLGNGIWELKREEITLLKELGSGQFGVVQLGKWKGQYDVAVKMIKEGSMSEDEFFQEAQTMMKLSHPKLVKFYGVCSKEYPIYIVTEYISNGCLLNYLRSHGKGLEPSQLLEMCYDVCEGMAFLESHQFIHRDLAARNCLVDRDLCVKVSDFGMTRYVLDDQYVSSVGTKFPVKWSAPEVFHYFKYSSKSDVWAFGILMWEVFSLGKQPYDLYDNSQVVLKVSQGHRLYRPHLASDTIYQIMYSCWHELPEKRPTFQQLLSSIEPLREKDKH

Row | SMILES | remaining activity at 2.5 µM (Bmx(h)) [%] | percent residual activity of CK1(y) (CK1(y)) [%] | remaining activity at 2.5 µM (IKKα(h)) [%] | remaining activity at 2.5 µM (PKBβ(h)) [%] | remaining activity at 2.5 µM (PRK2(h)) [%] | remaining activity at 2.5 µM (Snk(h)) [%] | remaining activity at 2.5 µM (ZIPK(h)) [%]
1 | CN1CCCC1CCNC(=O)c1cn2c3c(c(N4CCC(c5cnccn5)C4)c(F)cc3c1=O)Oc1cc3ccccc3cc1-2 (centres unmarked) [Compound A-1] | 68 | 78 | 68 | 48 | 36 | 125 | 27
2 | CC(=O)N1CCN(c2ccc3c(=O)c(C(=O)NCCN4CCCC4)c4n(C)c5ccccc5n4c3n2)CC1 [Compound B-1] | 105 | 77 | 118 | 106 | 110 | 125 | 116
